One data set can be described thus: in vivo. The arrangement: species or system mouse (male SLC-ICR mice). The note with it: mouse; for Bioavailability / AUC (area under plasma-concentration curve of non-ester form, 0 to 2 hr): 100 mg/kg; for AUC (area under plasma-concentration curve of non-ester form, 0 to 2 hr): po. The procedure:
Test compounds: compounds obtained in examples 6, 8, 10, 13, 14, 16, 21, 23 and compound for control: pivaloyloxymethyl 7β-[2-(2-aminothiazol-4-yl)acetamido]-3-[[[1-(2-dimethylaminoethyl)-1H-tetrazol-5-yl]thio]methyl]-ceph-3-em-4-carboxylate (This will be referred to simply "compound A" hereinafter).
Male SLC-ICR mice (4 weeks old) were starved but under free access to drinking water for 16-18 hr. period to the experiments. The test compound was administered orally by intubation as an aqueous solution with 2.5 equimolar of tartaric acid at a dose of 100 mg/kg as non-ester form of the Compound I, to a group of four mice. […] The concentration of the non-ester form of the Compound I in the plasma was measured by the cylinder-plate method using Proteus mirabilis ATCC 21100 as an assay organism.
Control test: an aqueous solution of non-ester form of the Compound I in an amount of 10 ml water/Kg mouse body weight, was subcutaneously applied and AUC was calculated in the same manner as above.
Area under plasma-concentration curve (AUC) for 0 to 2 hr. after
administration was calculated by the trapezoidal rule.

The subject of data set [1] is gram-negative bacteria (e.g., Escherichia coli, Klebsiella pneumonia, Proteus vulgaris, Proteus mirabilis, Proteus morganii). In words: Antibacterial activity against gram-negative bacteria. It is filed as cell-based. The note with it: in words.
The test system of data set [2] is gram-positive bacteria (e.g., Staphylococcus aureus). In words: Antibacterial activity against gram-positive bacteria. It is filed as cell-based. The note with it: in words.

For the compound `CN(C)CCn1nnnc1SCC1=C(C(=O)O)N2C(=O)[C@@H](NC(=O)Cc3csc(N)n3)[C@H]2SC1` [non-ester form of Compound I, 7β-[2-(2-aminothiazol-4-yl)acetamido]-3-[[[1-(2-dimethylaminoethyl)-1H-tetrazol-5-yl]thio]methyl]ceph-3-em-4-carboxylic acid, reference compound], in the data set “in vivo” (sc), the AUC (commonly the area under the concentration-time curve, a measure of exposure) at 2 h is 38800 ng·h/mL. The “Bioavailability, control” value in the data set “in vivo” (sc, 120 min) stood at 100%. For the same compound, the “antibacterial activity against gram-negative bacteria” value in data set [1] is “excellent antibacterial activity”. The “antibacterial activity against gram-positive bacteria” value in data set [2] was “excellent antibacterial activity”.

Consider `CCCC(CCC)C(=O)OC(C)OC(=O)C1=C(CSc2nnnn2CCN(C)C)CS[C@@H]2[C@H](NC(=O)Cc3csc(N)n3)C(=O)N12` (stereo partly drawn) [Example 14, 1-(2-n-propylpentanoyloxy)ethyl 7β-[2-(2-aminothiazol-4-yl)acetamido]-3-[[[1-(2-dimethylaminoethyl)-1H-tetrazol-5-yl)thio]methyl]ceph-3-em-4-carboxylate], for which, in “in vivo” (120 min), the Bioavailability is given as 66.0% and the “AUC (area under plasma-concentration curve of non-ester form, 0 to 2 hr)” value is 25600 ng·h/mL.

For `CCCCCC(=O)OC(C)OC(=O)C1=C(CSc2nnnn2CCN(C)C)CS[C@@H]2[C@H](NC(=O)Cc3csc(N)n3)C(=O)N12` (stereo partly drawn) [Example 6, 1-(n-hexanoyloxy)ethyl 7β-[2-(2-aminoethiazol-4-yl)acetamido]-3-[[[1-(2-dimethylaminoethyl)-1H-tetrazol-5-yl]thio]methyl]ceph-3-em-4-carboxylate], in the data set “in vivo” (120 min), the Bioavailability is recorded as 67.5% and the “AUC (area under plasma-concentration curve of non-ester form, 0 to 2 hr)” value came to 26200 ng·h/mL.

With `CN(C)CCn1nnnc1SCC1=C(C(=O)OCOC(=O)C(C)(C)C)N2C(=O)[C@@H](NC(=O)Cc3csc(N)n3)[C@H]2SC1` [Compound A, pivaloyloxymethyl 7β-[2-(2-aminothiazol-4-yl)acetamido]-3-[[[1-(2-dimethylaminoethyl)-1H-tetrazol-5-yl]thio]methyl]-ceph-3-em-4-carboxylate, reference compound], in “in vivo” (120 min), the Bioavailability was 41.8%.

In the case of `CCC(CC)CC(=O)OC(C)OC(=O)C1=C(CSc2nnnn2CCN(C)C)CS[C@@H]2[C@H](NC(=O)Cc3csc(N)n3)C(=O)N12` (stereo partly drawn) [Example 23, 1-(3-ethylpentanoyloxy)ethyl 7β-[2-(2-aminothiazol-4-yl)acetamido]-3-[[[1-(2-dimethylaminoethyl)-1H-tetrazol-5-yl]thio]methyl]ceph-3-em-4-carboxylate], in “in vivo” (120 min), the Bioavailability was determined as 78.2% and the “AUC (area under plasma-concentration curve of non-ester form, 0 to 2 hr)” value came out at 30300 ng·h/mL.

With `CCCCCC(=O)OC(CC)OC(=O)C1=C(CSc2nnnn2CCN(C)C)CS[C@@H]2[C@H](NC(=O)Cc3csc(N)n3)C(=O)N12` (stereo partly drawn) [Example 16, 1-(n-hexanoyloxy)propyl 7β-[2-(2-aminothiazol-4-yl)acetamido]-3-[[[1-(2-dimethylaminoethyl)-1H-tetrazol-5-yl]thio]methyl]ceph-3-em-4-carboxylate], in the data set “in vivo” (120 min), the Bioavailability was 65.0% and the “AUC (area under plasma-concentration curve of non-ester form, 0 to 2 hr)” value amounted to 25200 ng·h/mL.

For `CCCCCCCC(=O)OC(C)OC(=O)C1=C(CSc2nnnn2CCN(C)C)CS[C@@H]2[C@H](NC(=O)Cc3csc(N)n3)C(=O)N12` (stereo partly drawn) [Example 13, 1-(n-octanoyloxy)ethyl 7β-[2-(2-aminothiazol-4-yl)acetamido]-3-[[[1-(2-dimethylaminoethyl)-1H-tetrazol-5-yl]thio]methyl]ceph-3-em-4-carboxylate], in “in vivo” (120 min), the Bioavailability is listed as 60.6% and the “AUC (area under plasma-concentration curve of non-ester form, 0 to 2 hr)” value was 23500 ng·h/mL.

On to `CCC(C)CC(=O)OC(C)OC(=O)C1=C(CSc2nnnn2CCN(C)C)CS[C@@H]2[C@H](NC(=O)Cc3csc(N)n3)C(=O)N12` (stereo partly drawn) [Example 10, 1-(3-methylpentanoyloxy)ethyl 7β-[2-(2-aminothiazol-4-yl)acetamido]-3-[[[1-(2-dimethylaminoethyl)-1H-tetrazol-5-yl]-thio]methyl]ceph-3-em-4-carboxylate], for which, in “in vivo” (120 min), the Bioavailability amounted to 93.2% and the “AUC (area under plasma-concentration curve of non-ester form, 0 to 2 hr)” value is 36200 ng·h/mL.

Regarding `CC(C)CCC(=O)OC(C)OC(=O)C1=C(CSc2nnnn2CCN(C)C)CS[C@@H]2[C@H](NC(=O)Cc3csc(N)n3)C(=O)N12` (stereo partly drawn) [Example 8, 1-(4-methylpentanoyloxy)ethyl 7β-[2-(2-aminothiazol-4-yl)acetamido]-3-[[[1-(2-dimethylaminoethyl)-1H-tetrazol-5-yl]thio]methyl]ceph-3-em-4-carboxylate], in the data set “in vivo” (120 min), the Bioavailability came to 52.8% and the “AUC (area under plasma-concentration curve of non-ester form, 0 to 2 hr)” value turned out to be 20500 ng·h/mL.

For `CCC(CC)C(=O)OC(C)OC(=O)C1=C(CSc2nnnn2CCN(C)C)CS[C@@H]2[C@H](NC(=O)Cc3csc(N)n3)C(=O)N12` (stereo partly drawn) [Example 21, 1-(2-ethylbutyryloxy)ethyl 7β-[2-(2-aminothiazol-4-yl)acetamido]-3-[[[1-(2-dimethylaminoethyl)-1H-tetrazol-5-yl]thio]methyl]ceph-3-em-4-carboxylate], in “in vivo” (120 min), the Bioavailability was 100.0% and the “AUC (area under plasma-concentration curve of non-ester form, 0 to 2 hr)” value was 38800 ng·h/mL.

The values above are taken from patent US4497809A, “Cephalosporin derivatives” (Takeda Chemical Industries, Ltd., priority 1982, dated 1985).
